Experimental data as given in ChEMBL document CHEMBL1201862, “PubChem BioAssay data set” (2004).
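Step 1: Grow cells in 96-well plates. Step 2: Expose to compound for 48 hours at 5 concentrations. Step 3: Interpolate endpoints linearly; if unreached, use highest concentration. Abbreviation: GI50, concentration required for 50% inhibition of growth.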 Active and inactive are the calls of the source. No stated cut-off is given here; in the data, active = GI50 up to about 1.1 µM and inactive = higher.

Experiments:
Assay in all cases: growth of human tumour cells (NCI), 48 h
[1] = tested on: RXF 393
[2] = tested on: SK-OV-3
[3] = tested on: UACC-257
[4] = tested on: HOP-62
[5] = tested on: OVCAR-4
[6] = tested on: SW-620
[7] = tested on: SN12C
[8] = tested on: HOP-92
[9] = tested on: UACC-62
[10] = tested on: A549
[11] = tested on: NCI/ADR-RES
[12] = tested on: A498
[13] = tested on: MDA-MB-435
[14] = tested on: Malme-3M
[15] = tested on: HT-29
[16] = tested on: LOX IMVI
[17] = tested on: PC-3
[18] = tested on: KM12
[19] = tested on: HL-60
[20] = tested on: ACHN

Measured: GI50

O=c1c2cc(-c3ccccc3)sc2nc2n1N=C(c1ccccc1)CS2
inactive: [1] > 10 µM | [2] 10.6 µM | [3] 24.1 µM | [4] 5.02 µM | [5] 15.8 µM | [6] 69.5 µM | [7] 27 µM | [8] 12.1 µM | [9] 12.4 µM | [10] 21.4 µM | [11] 13.4 µM | [12] 21.4 µM | [13] 37.5 µM | [14] 33.3 µM | [15] > 10 µM | [16] 27.3 µM | [17] 28.9 µM | [18] 31 µM | [19] > 100 µM | [20] 11.4 µM

CC1=NN(c2nc(N)nc(CSCc3nc(N)nc(N(C)C)n3)n2)C(C)(C)C1
inactive: [1] > 100 µM | [2] > 100 µM | [3] > 100 µM | [4] > 100 µM | [5] > 100 µM | [6] > 100 µM | [7] > 100 µM | [8] > 100 µM | [9] > 100 µM | [10] > 100 µM | [11] > 100 µM | [12] > 100 µM | [13] > 100 µM | [15] > 100 µM | [16] > 100 µM | [17] > 100 µM | [18] > 100 µM | [19] > 100 µM | [20] > 100 µM

C[C@]12C[C@@H](OC(=O)[C@]1(C)O)[C@@H]([C@]1(O)CC[C@H]3[C@@H]4C[C@H]5O[C@]56C[C@H]5O[C@H]5C(=O)[C@]6(C)[C@H]4CC[C@@]31C)C2
inactive: [1] > 50 µM | [2] > 50 µM | [3] > 50 µM | [4] > 50 µM | [5] 27.5 µM | [6] > 50 µM | [7] > 50 µM | [8] > 50 µM | [9] > 50 µM | [10] > 50 µM | [11] > 50 µM | [12] > 50 µM | [13] > 50 µM | [14] > 5 µM | [15] > 50 µM | [17] > 50 µM | [18] > 50 µM | [19] > 50 µM | [20] > 50 µM

COC(=O)c1c(C)[nH]c2c1cc(O)c1nc(C)c(C)nc12
inactive: [1] 28 µM | [2] 70 µM | [3] > 100 µM | [4] 18.7 µM | [5] > 100 µM | [6] > 100 µM | [7] > 100 µM | [8] 37.9 µM | [9] 43 µM | [10] > 100 µM | [11] > 100 µM | [12] 14.8 µM | [13] > 100 µM | [14] > 100 µM | [15] > 100 µM | [16] > 100 µM | [17] 23.2 µM | [18] > 100 µM | [19] 5.77 µM | [20] 35.5 µM

CC(C)(C)OC(=O)NCC(=O)N(CCc1ccc(Cl)c(Cl)c1)CCN1CCCC1
inactive: [1] 14.9 µM | [2] 14.9 µM | [3] 15.7 µM | [4] 13.5 µM | [5] 21.2 µM | [6] 16.6 µM | [7] 17.3 µM | [8] 3.78 µM | [9] 17.4 µM | [10] 17.7 µM | [11] 15.3 µM | [12] 17.8 µM | [13] 13.9 µM | [14] 19.8 µM | [15] 6.32 µM | [16] 14.6 µM | [17] 15.3 µM | [18] 16.3 µM | [19] 12.1 µM | [20] 19.5 µM

COc1ccc(OC)c2sc(N3C(=O)/C(=C/c4cccc([N+](=O)[O-])c4)N=C3c3ccccc3)nc12
inactive: [1] 55.1 µM | [2] 50.6 µM | [3] 38.3 µM | [4] 54.1 µM | [6] 23.7 µM | [7] > 100 µM | [8] 94.2 µM | [9] 36.4 µM | [10] 47.1 µM | [11] 56 µM | [12] 57.8 µM | [13] 23.9 µM | [14] > 100 µM | [15] > 100 µM | [16] 23.1 µM | [17] 59.7 µM | [18] 42.2 µM | [19] 20.8 µM | [20] 99.8 µM

COC(=O)C[C@H](COCc1ccccc1)NC(=O)C[C@H](COCc1ccccc1)NC(=O)OC(C)(C)C
inactive: [1] 29.6 µM | [2] 23.2 µM | [4] 21.6 µM | [5] 18.5 µM | [6] 55.8 µM | [7] 26.4 µM | [8] 23.7 µM | [9] 36.6 µM | [10] 24.2 µM | [11] 21.8 µM | [12] 27.1 µM | [13] 34 µM | [14] 36.6 µM | [15] 30 µM | [16] 53.3 µM | [17] 26.9 µM | [18] 45.3 µM | [19] > 100 µM | [20] 38.6 µM

NNC(=O)c1ccc(OCc2nc3ccccc3[nH]2)cc1
inactive: [1] 34.8 µM | [2] > 100 µM | [3] 66.4 µM | [5] > 100 µM | [6] > 100 µM | [7] > 100 µM | [8] > 100 µM | [9] > 100 µM | [10] > 100 µM | [11] > 100 µM | [12] > 100 µM | [13] > 100 µM | [14] > 100 µM | [15] > 100 µM | [16] > 100 µM | [17] > 100 µM | [18] > 100 µM | [19] 43.7 µM | [20] > 100 µM

CSc1nc(-c2ccc(C)cc2)c(C#N)c(=O)[nH]1
inactive: [1] > 100 µM | [2] > 100 µM | [3] > 100 µM | [4] > 100 µM | [5] > 100 µM | [6] > 100 µM | [7] > 100 µM | [8] 85.3 µM | [9] > 100 µM | [10] > 100 µM | [11] > 100 µM | [12] > 100 µM | [13] > 100 µM | [15] > 100 µM | [17] > 100 µM | [18] > 100 µM | [19] > 100 µM | [20] > 100 µM

CCCCNC(=O)Nc1c(C(N)=O)c2n(c1C(=O)OCC)CCCCC2
inactive: [1] > 100 µM | [2] > 100 µM | [3] > 100 µM | [4] > 100 µM | [5] > 100 µM | [6] > 100 µM | [8] > 100 µM | [9] > 100 µM | [11] > 100 µM | [12] > 100 µM | [13] > 100 µM | [15] > 100 µM | [16] > 100 µM | [17] > 100 µM | [18] > 100 µM | [19] > 100 µM | [20] > 100 µM
